Reference: US8119795B2, “Triazole derivatives II” (Merck Patent GmbH, priority 2006, dated 2012)

Molecular target: T1, Recombinant human HSP90α (Homo sapiens, UniProt P07900)
T1 construct: host or cells: E. coli
Experiment: HSP90 radioligand filter binding test ([3H]17AAG competition)
Settings: [3H]17AAG 0.08 μM, HSP90 1.5 μg/assay, 22° C., 30 min; read-out: IC50* (HSP90 inhibition)
Procedure: Test Method for the Measurement of HSP90 Inhibitors
In the specific case, a radioligand filter binding test is used. The radioligand used here is tritium-labelled 17-allylaminogeldanamycin, [3H]17AAG. This filter binding test allows a targeted search for inhibitors which interfere with the ATP binding site.
Recombinant human HSP90α (E. coli expressed, 95% purity);
HEPES filter buffer (50 mM HEPES, pH 7.0, 5 mM MgCl2, BSA 0.01%)
Multiscreen F B (1 μm) filter plate (Millipore, MAFBNOB 50).
The 96-well microtitre filter plates are firstly irrigated and coated with 0.1% of polyethylenimine.
The test is carried out under the following conditions:
Reaction temperature 22° C.
Reaction time: 30 min., shaking at 800 rpm
50 mM HEPES HCl, pH 7.0, 5 mM MgCl2, 0.01% (w/v) BSA
At the end of the reaction, the supernatant in the filter plate is removed by suction with the aid of a vacuum manifold (Multiscreen Separation System, Millipore), and the filter is washed twice.
The filter plates are then measured in a beta counter (Microbeta, Wallac) with scintillator (Microscint 20, Packard).
“% of control” is determined from the “counts per minutes” values and the IC50 value of a compound is calculated therefrom.

Row | Compound | IC50 [nM]
1 | Cc1ccccc1-n1c(-c2cc(C(=O)N(C)Cc3cccc(OCCN4CCOCC4)c3)c(O)cc2O)n[nH]c1=O [Compound A116c, 2,4-Dihydroxy-N-methyl-N-[3-(2-morpholin-4-ylethoxy)benzyl]-5-(5-oxo-4-o-tolyl-4,5-dihydro-1H-1,2,4-triazol-3-yl)benzamide] | 1000 to 10000
2 | Cc1cccc(-n2c(O)nnc2-c2cc(C(=O)N(C)Cc3ccco3)c(O)cc2O)c1 [Compound A57b, 5-{2,4-Dihydroxy-5-[N-(furan-2-ylmethyl)-N-methylaminocarbonyl]phenyl}-4-(3-methylphenyl)-3-hydroxy-4H-1,2,4-triazole] | 10 to 1000
3 | CN(Cc1ccco1)C(=O)c1cc(-c2nnc(O)n2-c2ccccc2)c(O)cc1O [Compound A57a, 5-{2,4-Dihydroxy-5-[N-(furan-2-ylmethyl)-N-methylaminocarbonyl]phenyl}-4-phenyl-3-hydroxy-4H-1,2,4-triazole] | 10 to 1000
4 | CN(Cc1ccco1)C(=O)c1cc(-c2nnc(O)n2-c2cc(Cl)cc(Cl)c2)c(O)cc1O [Compound A58b, 5-{2,4-Dihydroxy-5-[N-(furan-2-ylmethyl)-N-methylaminocarbonyl]phenyl}-4-(3,5-dichlorophenyl)-3-hydroxy-4H-1,2,4-triazole] | 10 to 1000
5 | Cc1ccccc1-n1c(O)nnc1-c1cc(C(=O)N(C)Cc2ccco2)c(O)cc1O [Compound A57, 5-{2,4-Dihydroxy-5-[N-(furan-2-ylmethyl)-N-methylaminocarbonyl]phenyl}-4-(2-methylphenyl)-3-hydroxy-4H-1,2,4-triazole] | 10 to 1000
6 | Cc1ccccc1-n1c(O)nnc1-c1cc(C(=O)N(C)Cc2ccccc2Cl)c(O)cc1O [Compound A27, 5-{2,4-Dihydroxy-5-[N-(2-chlorobenzyl)-N-methylaminocarbonyl]phenyl}-4-(2-methylphenyl)-3-hydroxy-4H-1,2,4-triazole] | 10 to 1000
7 | COc1ccc(Cl)cc1CN(C)C(=O)c1cc(-c2nnc(O)n2-c2ccccc2C)c(O)cc1O [Compound A51, 5-{2,4-Dihydroxy-5-[N-(3-chloro-6-methoxybenzyl)-N-methylaminocarbonyl]phenyl}-4-(2-methylphenyl)-3-hydroxy-4H-1,2,4-triazole] | 10 to 1000
8 | CN(Cc1ccco1)C(=O)c1cc(-c2nnc(O)n2-c2cccc(Cl)c2)c(O)cc1O [Compound A58a, 5-{2,4-Dihydroxy-5-[N-(furan-2-ylmethyl)-N-methylaminocarbonyl]phenyl}-4-(3-chlorophenyl)-3-hydroxy-4H-1,2,4-triazole] | 10 to 1000

Next, values leading:

Row | IC50 [nM] | Compound
9 | 10 to 1000 | Cc1ccccc1-n1c(O)nnc1-c1cc(C(=O)N(C)Cc2ccccc2F)c(O)cc1O [Compound A9, 5-{2,4-Dihydroxy-5-[N-(2-fluorobenzyl)-N-methylaminocarbonyl]phenyl}-4-(2-methylphenyl)-3-hydroxy-4H-1,2,4-triazole]
10 | 10 to 1000 | Cc1ccccc1-n1c(O)nnc1-c1cc(C(=O)N(C)Cc2cccc(F)c2)c(O)cc1O [Compound A15, 5-{2,4-Dihydroxy-5-[N-(3-fluorobenzyl)-N-methylaminocarbonyl]phenyl}-4-(2-methylphenyl)-3-hydroxy-4H-1,2,4-triazole]
11 | 10 to 1000 | Cc1ccccc1-n1c(O)nnc1-c1cc(C(=O)N(C)Cc2ccc(F)cc2)c(O)cc1O [Compound A12, 5-{2,4-Dihydroxy-5-[N-(4-fluorobenzyl)-N-methylaminocarbonyl]phenyl}-4-(2-methylphenyl)-3-hydroxy-4H-1,2,4-triazole]
12 | 10 to 1000 | CCc1ccccc1-n1c(O)nnc1-c1cc(C(=O)N(C)Cc2ccco2)c(O)cc1O [Compound A62c, 5-{2,4-Dihydroxy-5-[N-(furan-2-ylmethyl)-N-methylaminocarbonyl]phenyl}-4-(2-ethylphenyl)-3-hydroxy-4H-1,2,4-triazole]
13 | 10 to 1000 | COc1cccc(-n2c(O)nnc2-c2cc(C(=O)N(C)Cc3ccco3)c(O)cc2O)c1 [Compound A62b, 5-{2,4-Dihydroxy-5-[N-(furan-2-ylmethyl)-N-methylaminocarbonyl]phenyl}-4-(3-methoxyphenyl)-3-hydroxy-4H-1,2,4-triazole]
14 | 10 to 1000 | CN(Cc1ccco1)C(=O)c1cc(-c2nnc(O)n2-c2ccc(Cl)cc2)c(O)cc1O [Compound A58c, 5-{2,4-Dihydroxy-5-[N-(furan-2-ylmethyl)-N-methylaminocarbonyl]phenyl}-4-(4-chlorophenyl)-3-hydroxy-4H-1,2,4-triazole]
15 | 10 to 1000 | CN(Cc1ccco1)C(=O)c1cc(-c2nnc(O)n2-c2cccc(F)c2)c(O)cc1O [Compound A59a, 5-{2,4-Dihydroxy-5-[N-(furan-2-ylmethyl)-N-methylaminocarbonyl]phenyl}-4-(3-fluorophenyl)-3-hydroxy-4H-1,2,4-triazole]
16 | 10 to 1000 | CN(Cc1ccco1)C(=O)c1cc(-c2nnc(O)n2-c2ccccc2Cl)c(O)cc1O [Compound A58, 5-{2,4-Dihydroxy-5-[N-(furan-2-ylmethyl)-N-methylaminocarbonyl]phenyl}-4-(2-chlorophenyl)-3-hydroxy-4H-1,2,4-triazole]
17 | 10 to 1000 | CCc1cccc(-n2c(O)nnc2-c2cc(C(=O)N(C)Cc3ccco3)c(O)cc2O)c1 [Compound A59b, 5-{2,4-Dihydroxy-5-[N-(furan-2-ylmethyl)-N-methylaminocarbonyl]phenyl}-4-(3-ethylphenyl)-3-hydroxy-4H-1,2,4-triazole]
18 | 10 to 1000 | Cc1ccccc1-n1c(O)nnc1-c1cc(C(=O)N(C)Cc2cccc(Cl)c2)c(O)cc1O [Compound A24, 5-{2,4-Dihydroxy-5-[N-(3-chlorobenzyl)-N-methylaminocarbonyl]phenyl}-4-(2-methylphenyl)-3-hydroxy-4H-1,2,4-triazole]
19 | 10 to 1000 | COc1cc(O)c(-c2nnc(O)n2-c2ccccc2C)cc1C(=O)N(C)Cc1ccccc1 [Compound A116a, 5-[2-Hydroxy-4-methoxy-5-(N-benzyl-N-methylaminocarbonyl)phenyl]-4-(2-methylphenyl)-3-hydroxy-4H-1,2,4-triazole]
20 | 10 to 1000 | COc1cccc(CN(C)C(=O)c2cc(-c3nnc(O)n3-c3ccccc3C)c(O)cc2O)c1 [Compound A6a, 5-{2,4-Dihydroxy-5-[N-(3-methoxybenzyl)-N-methylaminocarbonyl]phenyl}-4-(2-methylphenyl)-3-hydroxy-4H-1,2,4-triazole]
